In patent US20070161644A1, “Erastin analogs and uses thereof” (priority 2005, published 2007):
Like-named read-outs stand apart in the source and are kept apart here.

Experiments:
SK-OV-3 = test: Sytox screen, tumor cell line panel; format: cell-based; conditions: Homo sapiens, Ovarian, read-out: IC 50, SK-OV-3
MIA-PaCa-2 = test: Sytox screen, tumor cell line panel; format: cell-based; conditions: Homo sapiens, Pancreatic, K-ras mutant (G12C), read-out: IC 50, MIA-PaCa-2
BT-549 = test: Sytox screen, tumor cell line panel; format: cell-based; conditions: Homo sapiens, Breast, activated pathway, read-out: IC 50, BT-549
PANC-1 = test: Sytox screen, tumor cell line panel; format: cell-based; conditions: Homo sapiens, Pancreatic, K-ras V12 mutant, read-out: IC 50, PANC-1
HOP-62 = test: Sytox screen, tumor cell line panel; format: cell-based; conditions: Homo sapiens, Non-Small Cell Lung, K-ras G12V, read-out: IC 50, HOP-62
BJELR = test: Sytox primary screen; format: cell-based; conditions: Homo sapiens
Excerpt: The Sytox primary screen is a phenotypic assay which monitors alterations in cell survival-proliferation as a result of compound treatment. It was devised as high throughput method to identify compounds which specifically alter the growth potential of cells harboring the causative mutations found in cancer patients while not affecting the growth of normal cells.
The assay relies upon an inexpensive, simple and reliable readout of a membrane impermeable fluorescent dye (Sytox, from Molecular Probes) which binds to nucleic acid. In healthy cells, no signal is detected because the cell's membrane is intact and the dye will not enter. However, if a cell's membrane is compromised as a result of apoptosis or necrosis, a fluorescent signal proportional to the number of similarly affected cells will be detected. By utilizing a two-step readout (final read in the presence of detergent to permit labeling of all cells), the assay can identify compounds which produce cytostasis, cytotoxicity and/or mitogenesis. The first read or “dead cell” read provides an estimate of the toxicity of a given compound by indicating the number of dead or dying cells in the culture at the time of assay. The second read or “total cell” read captures both the cumulative effects of cytoxicity in reducing the size of the cell population as well as any cytostatic or anti-proliferative effects a test compound may exert on the cells in the test population in the absence of toxicity.
For the purpose of screening, the previously described BJ-TERT line was defined as the “normal” reference cell line and BJ-TERT/LT/ST/RAS^V12 cells were the tumorigenic cell line. Cells were seeded overnight in 96 well plates at densities which without treatment would permit 95% confluence in the wells 72 H later. The following day, the cells were exposed to test compounds in a dilution series for a period of 48 hours. Following this incubation period, the Sytox reagent was added to the cultures at the manufacturer's recommended concentration and the dead cell fluorescence read was taken. After completion of this measurement, the detergent Saponin was added to each well of the cultures to permeabilize the membranes allowing the Sytox reagent to enter every cell thereby, facilitating measurement of the total number of cells remaining in the culture.

HCT116 = test: Sytox screen, tumor cell line panel; format: cell-based; conditions: Homo sapiens, HCT-116; Colon; K-ras G12D; read-out: IC 50, HCT116
OVCAR-3 = test: Sytox screen, tumor cell line panel; format: cell-based; conditions: Homo sapiens, Ovarian, K-ras amplification, read-out: IC 50, OVCAR-3
MALME-3M = test: Sytox screen, tumor cell line panel; format: cell-based; conditions: Homo sapiens, Melanoma, B-raf V600E mut, ras wt, read-out: IC 50, MALME-3M
DU-145 = test: Sytox screen, tumor cell line panel; format: cell-based; conditions: Homo sapiens, Prostate, Wt ras, read-out: IC 50, DU-145
HT-1080 xenografts = test: HT-1080 tumor treatment study; format: in vivo, mouse; conditions: nude Balb/c mice; 100 or 50 mg/Kg, QD×5 days, IP
Procedure: Nude Balb/c (Nu/Nu strain, Charles River Laboratories), female, 5-6 week. old (˜20 g average body weight).
Both compounds were formulated in an identical manner. For the 100 mg/kg dose level, each compound was delivered at a concentration of 10.0 mg/ml, in an injection volume of 0.2 ml. For the 50 mg/kg dose level, each compound was delivered at a concentration of 5.0 mg/ml, in an injection volume of 0.2 ml. For both dose levels, the vehicle contained 0.025% Tween-80, 0.01% benzyl alcohol, 35 mM acetic acid (HOAc), 100 mM potassium phosphate buffer, and 32 mM sucrose, pH=6.5.
Beginning when the mean tumor volume reached ˜200 mm^3, and continuing through day 5, every day, each animal was administered a single IP injection of one of the above treatments, for a total of 5 doses.
Each of 70 mice was implanted with 1×10^7 HT-1080 cells by SC injection of 0.1 cc of inoculum into the right hind flank. A 25 G×⅝″ needle size was used. […]
Starting on Day 1, all animals were weighed, and tumor dimensions (length (L) and width (W)) were measured, every other day. […]
The resulting tumor volume values were averaged for each study group for each time point, and were then plotted against time. Variance was expressed as standard error of the mean (±SEM).

PC-3 = test: Sytox screen, tumor cell line panel; format: cell-based; conditions: Homo sapiens, Prostate, read-out: IC 50, PC-3
HOP-92 = test: Sytox screen, tumor cell line panel; format: cell-based; conditions: Homo sapiens, Non-Small Cell Lung, Wt ras, read-out: IC 50, HOP-92
OVCAR-5 = test: Sytox screen, tumor cell line panel; format: cell-based; conditions: Homo sapiens, Ovarian, K-ras G12V, read-out: IC 50, OVCAR-5
HT1080 = test: Sytox screen, tumor cell line panel; format: cell-based; conditions: Homo sapiens, HT-1080; fibrosarcoma; n-ras mutation; read-out: IC 50, HT1080
SK-MEL-28 = test: Sytox screen, tumor cell line panel; format: cell-based; conditions: Homo sapiens, Melanoma, B-raf V600E mut, ras wt, read-out: IC 50, SK-MEL-28
MCF7 = test: Sytox screen, tumor cell line panel; format: cell-based; conditions: Homo sapiens, Breast, activated pathway, read-out: IC 50, MCF7
DLD-1 = test: Sytox screen, tumor cell line panel; format: cell-based; conditions: Homo sapiens, Colon, K-ras G13D mutation, wt B-raf, read-out: IC 50, DLD-1
SK-MEL-5 = test: Sytox screen, tumor cell line panel; format: cell-based; conditions: Homo sapiens, Melanoma, B-raf V600E mut heterozygote, read-out: IC 50, SK-MEL-5
PANC-1 xenografts = test: PANC-1 tumor treatment study; format: in vivo; conditions: immunodeficient nude mouse; once a day for five consecutive days
Procedure: The experimental plan for the PANC-1 study was essentially identical to that of the HT-1080 study outlined above in Example 10 with the following exceptions: approximately 30-40 mg fragment of passaged PANC-1 tumor tissue was implanted subcutaneously in the right flank of an immunodeficient nude mouse. Tumor growth was monitored daily and when the tumors reached approximately 100 mm^3, animals harboring similarly sized tumors were group matched and compound dosing was initiated. Administration of compound 5 occurred once a day for five consecutive days at the doses listed below. In the PANC-1 xenografts, gemcitabine, administered at the maximum tolerated dose for the model, was used as a control. The gemcitabine regimen was 180 mg/kg […] on every third day over a period of 9 days.

CCOc1ccccc1-n1c(CN2CCNCC2)nc2ccccc2c1=O [Compound 5, 3-(2-ethoxyphenyl)-2-(piperazin-1-ylmethyl)quinazolin-4(3H)-one]
≥ 100 nM: IC50 (SK-OV-3) | IC50 (BT-549) | IC50 (HOP-62) | IC50 (HCT116) | IC50 (OVCAR-3) | IC50 (MALME-3M) | IC50 (DU-145) | IC50 (SK-MEL-28) | IC50 (DLD-1) | IC50 (SK-MEL-5)
< 100 nM: IC50 (PANC-1) | IC50 (BJELR; Sytox screen, 48 hours, read-out: IC50 in BJELR) | IC50 (BJELR; fibroblast, primary, ras V12 mutation, read-out: IC 50, BJELR) | IC50 (OVCAR-5) | IC50 (HT1080)
robust tumor regression: antitumor activity in HT-1080 xenografts (HT-1080 xenografts)
tumor regression: antitumor activity in PANC-1 xenografts (PANC-1 xenografts)
≥ 1000 nM: IC50 (MIA-PaCa-2) | IC50 (PC-3) | IC50 (HOP-92) | IC50 (MCF7)
